For the assay, the system named is Cancer cell lines. The assay is described as follows: The cytotoxicity in liposomal formulation was determined on the SF-763 human glioma cancer cell line. The format is functional, cell-based.

In the case of “Cholesteryl 1,12-dicarba-closo-dodecaborane-1-carboxylate (BCH)”, the Viable cells turned out to be 98.5%.

Source of the values: ChEMBL document CHEMBL1134908, “Synthesis of cholesterol-carborane conjugate for targeted drug delivery” (Bioorg Med Chem Lett, 2002).
